Test: solubility of the azo compound (to water)
Assay type: physicochemical
Description: The azo compound of the present invention can be used directly or in formulation with an appropriate carrier or the like, as a colorant for various kinds of articles. […] Said water-based composition is useful as a colorant for various kinds of articles. For example, said water-based composition can dye a material composed of cellulose. In addition, it can dye other materials having carbonamide bonds and widely used for dyeing of leather, textile and paper. Meanwhile, a typical use of the compound of the present invention includes an ink composition prepared by dissolving it in a liquid medium.

solubility [mg/mL]	SMILES
≥ 100	Nc1c(N=Nc2ccc3c(O)c(N=Nc4ccc5c(O)c(N=Nc6ccc(N=Nc7ccc(S(=O)(=O)O)cc7)cc6S(=O)(=O)O)c(S(=O)(=O)O)cc5c4S(=O)(=O)O)c(S(=O)(=O)O)cc3c2S(=O)(=O)O)cc(S(=O)(=O)O)c2cc(S(=O)(=O)O)c(N=Nc3ccc(S(=O)(=O)O)cc3[N+](=O)[O-])c(O)c12 [compound No. 2]
≥ 100	Cc1cc(N=Nc2c(S(=O)(=O)O)cc3c(S(=O)(=O)O)c(N=Nc4c(S(=O)(=O)O)cc5c(S(=O)(=O)O)c(N=Nc6cc(S(=O)(=O)O)c7cc(S(=O)(=O)O)c(N=Nc8ccc([N+](=O)[O-])cc8S(=O)(=O)O)c(O)c7c6N)ccc5c4O)ccc3c2O)c(OCCCS(=O)(=O)O)cc1N=Nc1cc(S(=O)(=O)O)cc2cc(S(=O)(=O)O)cc(O)c12 [compound No. 13]

— US20090118479A1, “Azo compound, ink composition, recording method and colored article” (priority 2005, published 2009)
